Measured values from patent publication US20030096893A1, “Oxidatively drying coating composition” (priority 2001, published 2003).
Where two headings read alike, the source gives them in different places.

Experiment: Solubility of the ligand in Shellsol D40 at 23° C.
Assay type: physicochemical
Experimental: This condensation product was added to Shellsole® D40 at a temperature of 23° C. The solubility of the ligand was less than 10 g/l.
Comparative Example A was repeated using 2-hydroxy 5-methyl benzaldehyde instead of salicyl aldehyde. Again, the resulting ligand was added to Shellsol® D40 at a temperature of 23° C. The solubilty of the ligand was less than 10 g/l.
Comparative Example A was repeated using 2-hydroxy 3,5-di tert. butyl benzaldehyde instead of salicyl aldehyde. Obtained was a ligand according to formula I having two tert. butyl substitutions on the two aromatic groups A1 and A2. The solubility in Shellsol® D40 at a temperature of 23° C. was higher than 20 g/l.
Comparative Example A was repeated again, now using 2-hydroxy 5-dodecyl benzaldehyde instead of salicyl aldehyde. Obtained was a ligand according to formula I having a dodecyl substitution on the two aromatic groups A1 and A2. The solubility in Shellsol® D40 at a temperature of 23° C. was higher than 100 g/l.

[1] = Shellsol D40 (aromate-free organic solvent), 23° C.

Which “solubility of the ligand in Shellsol D40” value [1] does the source give for `Cc1ccc(O)c(C=NC2CCCCC2N=Cc2cc(C)ccc2O)c1` (stereo not shown) [B] here?
The value was “less than 10 g/l”.

Which “solubility of the ligand in Shellsol D40” value does the source give for `Oc1ccccc1C=NC1CCCCC1N=Cc1ccccc1O` (stereo not shown) [Comparative Example A, N,N′-bis(salicylidene) cyclohexylene diamine] here?
The value was “less than 10 g/l”.

With `CC(C)(C)c1cc(C=NC2CCCCC2N=Cc2cc(C(C)(C)C)cc(C(C)(C)C)c2O)c(O)c(C(C)(C)C)c1` (stereo not shown) [Example 1] as the compound, how does the “solubility of the ligand in Shellsol D40” value [1] read?
The value was “higher than 20 g/l”.

Which “solubility of the ligand in Shellsol D40” value [1] does the source give for `CCCCCCCCCCCCc1ccc(O)c(C=NC2CCCCC2N=Cc2cc(CCCCCCCCCCCC)ccc2O)c1` (stereo not shown) [Example 2] here?
Its value is “higher than 100 g/l”.
